Common to all, as to assay: relative viability (nuclei count vs DMSO), 5 days (fraction); higher = more cells survive
Compound in experiment [1]: C#Cc1cccc(Nc2ncnc3cc(OC)c(OCCCCCCC(=O)NO)cc23)c1 [CUDC-101] + Cc1cc(Nc2cc(N3CCN(C)CC3)nc(Sc3ccc(NC(=O)C4CC4)cc3)n2)n[nH]1 [Tozasertib] (partner 0.1 µM)
The essentials: (§1)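 Nuclei were stained with Hoechst during a one-step fixation (final 0.05% Triton X-100, 1% formaldehyde, 1 ug/ml Hoechst) carried out 5 days after dosing, then counted on 4× images. The cells, lung cancer lines in 1536-well plates, had been dosed by pin tool the day after seeding with one drug alone or a fixed anchor-drug dose plus five library-drug doses (not always all listed) in √10 steps. Relative viability is the nuclei count in treated wells divided by that in vehicle wells, and each value is the median of duplicate plates.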

Compound in experiment [2]: C#Cc1cccc(Nc2ncnc3cc(OC)c(OCCCCCCC(=O)NO)cc23)c1 [CUDC-101] + Cc1nc(NC(=O)N2CCC[C@H]2C(N)=O)sc1-c1ccnc(C(C)(C)C(F)(F)F)c1 [Alpelisib] (partner 2 µM)
The procedure, abridged:
as §1

Compound in experiment [3]: C#Cc1cccc(Nc2ncnc3cc(OC)c(OCCCCCCC(=O)NO)cc23)c1 [CUDC-101] + NC(=O)Nc1cc(-c2cccc(F)c2)sc1C(=O)N[C@H]1CCCNC1 [AZD7762] (partner 0.2 µM)
The essentials: as §1

Compound in experiment [4]: C1=CC=C2C(=C1)N=C(S2)C(C#N)C3=NC(=NC=C3)NCCC4=CN=CC=C4 + NC(=O)Nc1cc(-c2cccc(F)c2)sc1C(=O)N[C@H]1CCCNC1 [AZD7762] (partner 0.2 µM)
The essentials: as §1

As to NCI-H2126, the relative viability worked out at 0.892 in experiment [1] (first compound 0.01 µM); 0.79 in experiment [1] (first compound 0.03162 µM); 0.807 in experiment [1] (first compound 0.1 µM); 0.867 in experiment [1] (first compound 0.3162 µM); 0.743 in experiment [1] (first compound 1 µM); 0.771 in experiment [2] (first compound 0.01 µM). Moreover, the relative viability amounted to 0.706 in experiment [2] (first compound 0.03162 µM); 0.7 in experiment [2] (first compound 0.1 µM); 0.74 in experiment [2] (first compound 0.3162 µM); 0.531 in experiment [2] (first compound 1 µM); 1.01 in experiment [3] (first compound 0.01 µM); 0.98 in experiment [3] (first compound 0.03162 µM). For the same cell line, the relative viability in experiment [3] (first compound 0.1 µM) is 0.939; in experiment [3] (first compound 0.3162 µM) it was 0.945; in experiment [3] (first compound 1 µM), 0.943; in experiment [4] (first compound 0.005 µM), 0.969; in experiment [4] (first compound 0.01581 µM), 1.06; in experiment [4] (first compound 0.05 µM), 1.04. The relative viability stood at 1.07 in experiment [4] (first compound 0.1581 µM) and 0.974 in experiment [4] (first compound 0.5 µM).

Take NCI-H2170: the relative viability in experiment [1] (first compound 0.01 µM) was determined as 0.632; in experiment [1] (first compound 0.03162 µM), 0.698; in experiment [1] (first compound 0.1 µM), 0.753; in experiment [1] (first compound 0.3162 µM), 0.62; in experiment [1] (first compound 1 µM) it was 0.345; in experiment [2] (first compound 0.01 µM) it was 0.88. In addition, the relative viability stood at 0.744 in experiment [2] (first compound 0.03162 µM); 0.724 in experiment [2] (first compound 0.1 µM); 0.658 in experiment [2] (first compound 0.3162 µM); 0.47 in experiment [2] (first compound 1 µM); 1.07 in experiment [3] (first compound 0.01 µM); 0.839 in experiment [3] (first compound 0.03162 µM). Besides, the relative viability is 0.819 in experiment [3] (first compound 0.1 µM); 0.892 in experiment [3] (first compound 0.3162 µM); 0.723 in experiment [3] (first compound 1 µM); 0.861 in experiment [4] (first compound 0.005 µM); 0.995 in experiment [4] (first compound 0.01581 µM); 0.861 in experiment [4] (first compound 0.05 µM). The relative viability stood at 0.968 in experiment [4] (first compound 0.1581 µM) and 0.744 in experiment [4] (first compound 0.5 µM).

As to NCI-H2347, the relative viability in experiment [1] (first compound 0.01 µM) was determined as 0.561; in experiment [1] (first compound 0.03162 µM) it was 0.614; in experiment [1] (first compound 0.1 µM), 0.608; in experiment [1] (first compound 0.3162 µM), 0.583; in experiment [1] (first compound 1 µM), 0.499; in experiment [2] (first compound 0.01 µM), 1.09. For the same cell line, the relative viability in experiment [2] (first compound 0.03162 µM) worked out at 1.08; in experiment [2] (first compound 0.1 µM), 1.09; in experiment [2] (first compound 0.3162 µM) it was 1.11; in experiment [2] (first compound 1 µM), 1.03; in experiment [3] (first compound 0.01 µM), 0.934; in experiment [3] (first compound 0.03162 µM), 0.653. The relative viability in experiment [3] (first compound 0.1 µM) worked out at 0.697; in experiment [3] (first compound 0.3162 µM), 0.791; in experiment [3] (first compound 1 µM), 0.569; in experiment [4] (first compound 0.005 µM) it was 0.782; in experiment [4] (first compound 0.01581 µM), 0.815; in experiment [4] (first compound 0.05 µM), 0.716. For the same cell line, the relative viability is 0.839 in experiment [4] (first compound 0.1581 µM) and 0.729 in experiment [4] (first compound 0.5 µM).

Consider NCI-H2405, for which the relative viability in experiment [1] (first compound 0.01 µM) was found to be 0.748; in experiment [1] (first compound 0.03162 µM), 0.809; in experiment [1] (first compound 0.1 µM), 0.725; in experiment [1] (first compound 0.3162 µM), 0.756; in experiment [1] (first compound 1 µM), 0.611; in experiment [2] (first compound 0.01 µM) it was 0.952. Besides, the relative viability in experiment [2] (first compound 0.03162 µM) amounted to 0.574; in experiment [2] (first compound 0.1 µM), 0.87; in experiment [2] (first compound 0.3162 µM), 1.22; in experiment [2] (first compound 1 µM), 0.603; in experiment [3] (first compound 0.01 µM), 0.763; in experiment [3] (first compound 0.03162 µM), 0.704. Moreover, the relative viability in experiment [3] (first compound 0.1 µM) amounted to 0.809; in experiment [3] (first compound 0.3162 µM), 0.747; in experiment [3] (first compound 1 µM) it was 0.649; in experiment [4] (first compound 0.005 µM), 0.705; in experiment [4] (first compound 0.01581 µM) it was 0.66; in experiment [4] (first compound 0.05 µM) it was 0.832. Also, the relative viability in experiment [4] (first compound 0.1581 µM) came out at 0.829; in experiment [4] (first compound 0.5 µM), 0.48.

The values are drawn from the supplement of paper PMC10307832.
